Measured values published in paper PMC10120512, “Benzenesulfonamide derivatives as Vibrio cholerae carbonic anhydrases inhibitors: a computational-aided insight in the structural rigidity-activity relationships” (Journal of Enzyme Inhibition and Medicinal Chemistry, 2023).

Columns and labels:
VchαCA [1] = biological target: VchαCA (Vibrio cholerae, UniProt Q9KMP6); assay: biochemical; assay type: biochemical
VchαCA [2] = assay: biochemical; assay type: biochemical; conditions: for SI [ KI hCA I/KI VchαCA ]: selectivity index hCA I over VchαCA; for SI [ KI hCA II/KI VchαCA ]: selectivity index hCA II over VchαCA
VchβCA = VchβCA (Vibrio cholerae, UniProt A0A086SLX8); assay: biochemical
VchγCA = VchγCA (Vibrio cholerae, UniProt Q9KVT1); assay: biochemical
[3] = test system: clinical isolates of V. cholerae (SI-Vc22, SI-Vc71, SI-Vc912); assay: Direct antibacterial activity, agar diffusion method; assay type: cell-based; conditions: for inhibition zone diameter: all the isolates, data not shown; for growth inhibition against at least one of the clinical isolates: 2 μL spot, 37 °C, 24 h; as to all read-outs here: test concentration or dose not given here

Chain of VchγCA (Q9KVT1 1-184): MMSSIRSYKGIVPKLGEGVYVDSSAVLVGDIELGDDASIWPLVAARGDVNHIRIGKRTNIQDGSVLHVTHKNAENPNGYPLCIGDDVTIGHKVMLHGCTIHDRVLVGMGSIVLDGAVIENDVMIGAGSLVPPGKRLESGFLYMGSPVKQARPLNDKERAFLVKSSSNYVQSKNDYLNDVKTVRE
Chain of VchβCA (A0A086SLX8 entry or part of it): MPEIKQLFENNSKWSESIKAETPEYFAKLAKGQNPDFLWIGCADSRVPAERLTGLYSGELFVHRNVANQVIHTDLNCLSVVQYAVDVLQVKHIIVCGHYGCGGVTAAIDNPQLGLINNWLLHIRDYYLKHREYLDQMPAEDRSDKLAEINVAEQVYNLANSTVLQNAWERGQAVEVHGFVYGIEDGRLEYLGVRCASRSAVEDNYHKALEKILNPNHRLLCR
Chain of VchαCA (Vibrio cholerae, UniProt Q9KMP6) (Q9KMP6 entry or part of it): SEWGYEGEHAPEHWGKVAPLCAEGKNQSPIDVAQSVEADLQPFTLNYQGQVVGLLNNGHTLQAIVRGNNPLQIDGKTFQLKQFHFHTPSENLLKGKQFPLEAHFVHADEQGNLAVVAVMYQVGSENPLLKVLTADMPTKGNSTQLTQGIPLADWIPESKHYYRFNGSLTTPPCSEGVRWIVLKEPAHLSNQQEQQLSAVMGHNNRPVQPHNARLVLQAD

| SMILES | Ki (VchαCA [1]) | SI [ KI hCA I/KI VchαCA ] (VchαCA [2]) | SI [ KI hCA II/KI VchαCA ] (VchαCA [2]) | Ki (VchβCA) | Ki (VchγCA) | inhibition zone diameter [3] | growth inhibition against at least one of the clinical isolates [3] | SI, selectivity with respect to human isoenzymes (VchαCA [2]; VchαCA versus human isoenzymes (abstract)) |
| --- | --- | --- | --- | --- | --- | --- | --- | --- |
| Cc1ccc(NCCNc2ccc(S(N)(=O)=O)cc2)cc1 [2a] | 0.0431 µM | 0.2 | 0.1 | 16.8 µM | 39.9 µM | – | – | – |
| NS(=O)(=O)c1ccc(N2CCN(c3ccccc3F)C2=O)cc1 [6c] | 0.0097 µM | – | – | – | 82.8 µM | 3–5 mm | – | – |
| NS(=O)(=O)c1ccc(NC(=O)CNc2ccccc2F)cc1 [6b] | 0.079 µM | 0.2 | 0.1 | 51.4 µM | 93.1 µM | – | – | – |
| NS(=O)(=O)c1ccc(NCCNCc2ccccc2)cc1 [8a] | 0.023 µM | 7.4 | 1.4 | 12.4 µM | 52.7 µM | – | – | – |
| NS(=O)(=O)c1cccc(NCCNc2ccccc2)c1 [11a] | 0.063 µM | 0.1 | 0.1 | 15.6 µM | – | 3–5 mm | moderate growth inhibition | – |
| CC(C)N1CCN(c2ccc(S(N)(=O)=O)cc2)C1=O [10c] | 0.0098 µM | 0.9 | 0.3 | 113 µM | 64.5 µM | – | – | – |
| NS(=O)(=O)c1ccc(NCCNc2ccccc2Br)cc1 [5a] | 0.0641 µM | 14.7 | 14.2 | 89.2 µM | – | – | – | – |
| NS(=O)(=O)c1ccc(N2CCN(c3ccccc3)C2=O)cc1 [1c] | 0.0071 µM | 7.7 | 0.6 | 134 µM | 5 µM | – | – | – |
| Cc1ccc(N2CCN(c3cccc(S(N)(=O)=O)c3)C2=O)cc1 [12c] | 0.011 µM | – | – | – | 76 µM | – | – | – |
| Cc1cccc(NCC(=O)Nc2ccc(S(N)(=O)=O)cc2)n1 [7b] | 0.017 µM | 0.9 | 0.3 | 73.1 µM | 59.8 µM | – | – | – |
| CC(C)NCC(=O)Nc1ccc(S(N)(=O)=O)cc1 [10b] | 0.0362 µM | 2.5 | 0.7 | 4 µM | 58.3 µM | – | – | – |
| NS(=O)(=O)c1ccc(NCCNc2ccc(Cl)cc2)cc1 [3a] | 0.0274 µM | 1.4 | 1.7 | 53.8 µM | – | – | – | – |
| CCCCNCCNc1cccc(S(N)(=O)=O)c1 [15a] | 0.0803 µM | 1.9 | 0.5 | 56.5 µM | 69.3 µM | – | – | – |
| NS(=O)(=O)c1cccc(N2CCN(c3ccc(Cl)cc3)C2=O)c1 [13c] | 0.004 µM | 7.6 | 21.0 | 122 µM | 73.7 µM | – | – | – |
| CCCCNCC(=O)Nc1ccc(S(N)(=O)=O)cc1 [9b] | 0.0786 µM | – | – | 141 µM | – | – | moderate growth inhibition | – |
| CCCCNCC(=O)Nc1cccc(S(N)(=O)=O)c1 [15b] | 0.0664 µM | 1.3 | 0.6 | 116 µM | 73.6 µM | – | – | – |
| NS(=O)(=O)c1ccc(NC(=O)CNc2ccc(Cl)cc2)cc1 [3b] | 0.066 µM | 0.3 | 0.1 | 116 µM | 86.9 µM | – | moderate growth inhibition | – |
| NS(=O)(=O)c1cccc(N2CCN(c3ccccc3)C2=O)c1 [11c] | 0.0503 µM | 1.2 | 0.6 | 100 µM | 6.5 µM | – | – | – |
| Cc1ccc(NCCNc2cccc(S(N)(=O)=O)c2)cc1 [12a] | 0.0441 µM | – | – | 173 µM | 79 µM | – | – | – |
| NS(=O)(=O)c1ccc(NCCNc2ccccc2)cc1 [1a] | 0.0781 µM | 0.3 | 0.1 | 18.3 µM | – | – | – | – |
| Cc1ccc(N2CCN(c3ccc(S(N)(=O)=O)cc3)C2=O)cc1 [2c] | 0.027 µM | 0.60 | 0.14 | 83.6 µM | 3.5 µM | – | – | – |
| NS(=O)(=O)c1ccc(N2CCN(Cc3ccccc3)C2=O)cc1 [8c] | 0.0026 µM | 3.1 | 1.2 | 127 µM | 8.1 µM | – | – | – |
| NS(=O)(=O)c1ccc(N2CCN(c3ccc(I)cc3)C2=O)cc1 [4c] | 0.013 µM | 7.1 | 1.0 | 116 µM | 72.2 µM | 3–5 mm | – | – |

| SMILES | Ki (VchαCA [1]) | SI [ KI hCA I/KI VchαCA ] (VchαCA [2]) | SI [ KI hCA II/KI VchαCA ] (VchαCA [2]) | Ki (VchβCA) | Ki (VchγCA) | inhibition zone diameter [3] | growth inhibition against at least one of the clinical isolates [3] | SI, selectivity with respect to human isoenzymes (VchαCA [2]; VchαCA versus human isoenzymes (abstract)) |
| --- | --- | --- | --- | --- | --- | --- | --- | --- |
| NS(=O)(=O)c1ccc(N2CCN(c3ccc(Cl)cc3)C2=O)cc1 [3c] | 0.047 µM | 4.1 | 1.0 | 106 µM | 50.2 µM | – | – | – |
| NS(=O)(=O)c1ccc(NCCNc2ccccc2F)cc1 [6a] | 0.0362 µM | 2.1 | 0.2 | 101 µM | 73.7 µM | – | – | – |
| Cc1cccc(NCCNc2ccc(S(N)(=O)=O)cc2)n1 [7a] | 0.037 µM | 2.4 | 0.9 | 19 µM | 69.8 µM | – | – | – |
| CCCCNCCNc1ccc(S(N)(=O)=O)cc1 [9a] | 0.0788 µM | 6.8 | 1.0 | 115 µM | – | 3–5 mm | – | – |
| Cc1ccc(NCC(=O)Nc2cccc(S(N)(=O)=O)c2)cc1 [12b] | 0.0731 µM | 1.2 | 0.1 | 121 µM | 9.6 µM | – | – | – |
| NS(=O)(=O)c1ccc(NC(=O)CNc2ccccc2Br)cc1 [5b] | 0.062 µM | – | – | 47.4 µM | 87.7 µM | – | – | – |
| CC(C)NCCNc1ccc(S(N)(=O)=O)cc1 [10a] | 0.0075 µM | 119.5 | 45.0 | 12.5 µM | 92.9 µM | – | – | – |
| NS(=O)(=O)c1cccc(NC(=O)CNc2ccccc2Br)c1 [14b] | 0.0723 µM | 0.3 | – | 16 µM | 72.4 µM | – | – | – |
| NS(=O)(=O)c1ccc(N2CCN(c3ccccc3Br)C2=O)cc1 [5c] | 0.0472 µM | 0.1 | 0.1 | – | 73.2 µM | – | – | – |
| CCCCN1CCN(c2ccc(S(N)(=O)=O)cc2)C1=O [9c] | 0.0047 µM | 128.4 | 90.0 | 113 µM | 54.9 µM | 3–5 mm | moderate growth inhibition | ≥ 90 |
| NS(=O)(=O)c1cccc(NCCNc2ccc(Cl)cc2)c1 [13a] | 0.0756 µM | 4.6 | 0.2 | 59.2 µM | 5.6 µM | – | moderate growth inhibition | – |
| NS(=O)(=O)c1cccc(NC(=O)CNc2ccc(Cl)cc2)c1 [13b] | 0.0755 µM | 3.6 | 0.4 | 70.4 µM | – | – | – | – |
| CCCCN1CCN(c2cccc(S(N)(=O)=O)c2)C1=O [15c] | 0.047 µM | 0.8 | 0.2 | 122 µM | 8 µM | – | – | – |
| NS(=O)(=O)c1ccc(NCCNc2ccc(I)cc2)cc1 [4a] | 0.065 µM | 12.1 | 9.9 | 136 µM | – | – | – | – |
| NS(=O)(=O)c1ccc(NC(=O)CNCc2ccccc2)cc1 [8b] | 0.0614 µM | – | – | 53.2 µM | – | – | – | – |
| NS(=O)(=O)c1ccc(NC(=O)CNc2ccccc2)cc1 [1b] | 0.053 µM | 1.2 | 0.1 | 17.7 µM | 49.4 µM | – | – | – |
| NS(=O)(=O)c1cccc(N2CCN(c3ccccc3Br)C2=O)c1 [14c] | 0.01 µM | 0.8 | 5.4 | 132 µM | 81.3 µM | – | – | – |
| NS(=O)(=O)c1cccc(NC(=O)CNc2ccccc2)c1 [11b] | 0.0594 µM | 7.5 | 0.6 | 132 µM | – | – | moderate growth inhibition | – |
| NS(=O)(=O)c1ccc(NC(=O)CNc2ccc(I)cc2)cc1 [4b] | 0.0228 µM | – | – | 157 µM | 72.5 µM | – | – | – |
| Cc1cccc(N2CCN(c3ccc(S(N)(=O)=O)cc3)C2=O)n1 [7c] | 0.011 µM | 5.0 | 0.7 | 122 µM | 80.2 µM | – | – | – |
| Cc1ccc(NCC(=O)Nc2ccc(S(N)(=O)=O)cc2)cc1 [2b] | 0.0431 µM | 0.2 | 1.9 | 97 µM | 82.6 µM | – | – | – |
| NS(=O)(=O)c1cccc(NCCNc2ccccc2Br)c1 [14a] | 0.0635 µM | 0.1 | 0.1 | 97 µM | – | – | – | – |
